Data published in PubChem BioAssay (NCI).
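Five compound concentrations were applied to cells in 96-well plates for 48 hours; endpoints were derived by simple linear interpolation of the resulting dose-response curve. GI50 marks 50% less growth. TGI: total growth inhibition.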

Tested on: MDA-MB-468 breast
Test: NCI tumour cell line growth inhibition, 48 h

SMILES | GI50 [µM] | TGI [µM]
Clc1ccc2c(NCCCN3CCN(c4nc(N5CCOCC5)nc5ccccc45)CC3)ccnc2c1 | 1.83 | 3.66
O=C(N/N=C/c1ccc(F)cc1)c1ccc(C(F)(F)F)nc1Nc1cccc(C(F)(F)F)c1 | 0.327 | 1.51
